# System: Escherichia coli ATCC 25922
# Assay: Minimum inhibitory concentration (MIC), CLSI broth micro-dilution, E. coli
# Format: cell-based
# Conditions: Escherichia coli, ATCC25922, 22 h, Table 6, cation adjusted Mueller Hinton Broth + 0.002% Tween-80, 35° C.
# How it was run: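 Colonies grown 20 h at 35° C on Trypticase Soy agar (MRSA) or Luria agar (E. coli) were suspended in cation-adjusted Mueller Hinton broth with 0.002% Tween-80. Suspensions were added at OD600 0.0005 to 10-point twofold compound dilutions, then incubated 22 h at 35° C.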
row,MIC,SMILES
1,0.25 µM,"Cc1nc(-c2ccc(C(C)(C)C)cc2)cc(N)c1C(=O)N[C@@H](CCN)C(=O)N(C)[C@@H]1C(=O)N[C@@H](C)C(=O)N[C@H](C(=O)NCC#N)Cc2ccc(OCCN)c(c2)-c2cc1ccc2O (racemic) [Compound 557, rac-(8S,11S,14S)-3-(2-aminoethoxy)-N-(cyanomethyl)-18-hydroxy-11-methyl-14-[methyl-[rac-(2S)-4-amino-2-[[4-amino-6-(4-tert-butylphenyl)-2-methyl-pyridine-3-carbonyl]amino]butanoyl]amino]-10,13-dioxo-9,12-diazatricyclo[13.3.1.12,6]icosa-1(18),2(20),3,5,15(19),16-hexaene-8-carboxamide]"

# Same assay, conditions: Escherichia coli, ATCC25922, 22 h, Table 7, cation adjusted Mueller Hinton Broth + 0.002% Tween-80, 35° C.
row,MIC,SMILES
1,0.063 µM,"Cc1nc(-c2ccc(OC3CCCCC3)cc2)nc(C)c1C(=O)N[C@@H](CCN)C(=O)N(C)[C@@H]1C(=O)N[C@@H](C)C(=O)N[C@H](C(=O)NCC#N)Cc2ccc(OC[C@H](O)CN)c(c2)-c2cc1ccc2OC[C@H](O)CN (racemic) [Compound 568, rac-(8S,11S,14S)-N-(cyanomethyl)-11-methyl-14-[methyl-[rac-(2S)-4-amino-2-[[2-[4-(cyclohexoxy)phenyl]-4,6-dimethyl-pyrimidine-5-carbonyl]amino]butanoyl]amino]-10,13-dioxo-3,18-bis[rac-(2R)-3-amino-2-hydroxy-propoxy]-9,12-diazatricyclo[13.3.1.12,6]icosa-1(18),2(20),3,5,15(19),16-hexaene-8-carboxamide]"
2,0.094 µM,"Cc1nc(-c2ccc(C(C)(C)C)cc2)nc(C)c1C(=O)N[C@@H](CCN)C(=O)N(C)[C@@H]1C(=O)N[C@@H](C)C(=O)N[C@H](C(=O)NCC#N)Cc2ccc(OCCN)c(c2)-c2cc1ccc2OC[C@H](O)CN (racemic) [Compound 571, rac-(8S,11S,14S)-3-(2-aminoethoxy)-N-(cyanomethyl)-11-methyl-14-[methyl-[rac-(2S)-4-amino-2-[[2-(4-tert-butylphenyl)-4,6-dimethyl-pyrimidine-5-carbonyl]amino]butanoyl]amino]-10,13-dioxo-18-[rac-(2R)-3-amino-2-hydroxy-propoxy]-9,12-diazatricyclo[13.3.1.12,6]icosa-1(18),2(20),3,5,15(19),16-hexaene-8-carboxamide]"
3,0.28 µM,"Cc1nc(-c2ccc(C(C)(C)C)cc2)nc(C)c1C(=O)N[C@@H](CNS(N)(=O)=O)C(=O)N(C)[C@@H]1C(=O)N[C@@H](C)C(=O)N[C@H](C(=O)NCC#N)Cc2ccc(OCCN)c(c2)-c2cc1ccc2OCCN (racemic) [Compound 572, rac-(8S,11S,14S)-3,18-bis(2-aminoethoxy)-N-(cyanomethyl)-11-methyl-14-[methyl-[rac-(2S)-2-[[2-(4-tert-butylphenyl)-4,6-dimethyl-pyrimidine-5-carbonyl]amino]-3-(sulfamoylamino)propanoyl]amino]-10,13-dioxo-9,12-diazatricyclo[13.3.1.12,6]icosa-1(18),2(20),3,5,15(19),16-hexaene-8-carboxamide]"
4,0.5 µM,"Cc1nc(-c2ccc(OC3CCCCC3)cc2)nc(C)c1C(=O)N[C@@H](CNS(N)(=O)=O)C(=O)N[C@@H]1C(=O)N[C@@H](C)C(=O)N[C@H](C(=O)NCC#N)Cc2ccc(OCCN)c(c2)-c2cc1ccc2OCCN (racemic) [Compound 573, rac-(8S,11S,14S)-3,18-bis(2-aminoethoxy)-N-(cyanomethyl)-11-methyl-10,13-dioxo-14-[[rac-(2S)-2-[[2-[4-(cyclohexoxy)phenyl]-4,6-dimethyl-pyrimidine-5-carbonyl]amino]-3-(sulfamoylamino)propanoyl]amino]-9,12-diazatricyclo[13.3.1.12,6]icosa-1(18),2(20),3,5,15(19),16-hexaene-8-carboxamide]"

# More lines, now with the values behind:
row,SMILES,MIC
1,"Cc1nc(-c2ccc(C(C)(C)C)cc2)nc(C)c1C(=O)N[C@@H](CCN)C(=O)N(C)[C@@H]1C(=O)N[C@@H](C)C(=O)N[C@H](C(=O)NCC#N)Cc2cc(OCCN)c(O)c(c2)-c2cc1ccc2O (racemic) [Compound 561, (4S,7S,10S)-10-((S)-4-amino-2-(2-(4-(tert-butyl)phenyl)-4,6-dimethylpyrimidine-5-carboxamido)-N-methylbutanamido)-25-(2-aminoethoxy)-N-(cyanomethyl)-16,26-dihydroxy-7-methyl-6,9-dioxo-5,8-diaza-1,2(1,3)-dibenzenacyclodecaphane-4-carboxamide]",0.75 µM
2,"Cc1nc(-c2ccc(OC3CCCCC3)cc2)cc(N)c1C(=O)N[C@@H](CCN)C(=O)N(C)[C@@H]1C(=O)N[C@@H](C)C(=O)N[C@H](C(=O)NCC#N)Cc2ccc(OCCCN)c(c2)-c2cc1ccc2OCCCN (racemic) [Compound 565, rac-(8S,11S,14S)-3,18-bis(3-aminopropoxy)-N-(cyanomethyl)-11-methyl-14-[methyl-[rac-(2S)-4-amino-2-[[4-amino-6-[4-(cyclohexoxy)phenyl]-2-methyl-pyridine-3-carbonyl]amino]butanoyl]amino]-10,13-dioxo-9,12-diazatricyclo[13.3.1.12,6]icosa-1(18),2(20),3,5,15(19),16-hexaene-8-carboxamide]",0.13 µM

# Same assay, conditions: Escherichia coli, ATCC25922, Table 7, cation adjusted Mueller Hinton Broth + 0.002% Tween-80, 35° C., 22 hours
row,SMILES,MIC
1,"Cc1nc(-c2ccc(C(C)(C)C)cc2)nc(C)c1C(=O)N[C@@H](CCN)C(=O)N(C)[C@@H]1C(=O)N[C@@H](C)C(=O)N[C@H](C(=O)NCC#N)Cc2cc(OCCN)c(O)c(c2)-c2cc1ccc2OCCN (racemic) [Compound 562, (4S,7S,10S)-10-((S)-4-amino-2-(2-(4-(tert-butyl)phenyl)-4,6-dimethylpyrimidine-5-carboxamido)-N-methylbutanamido)-16,25-bis(2-aminoethoxy)-N-(cyanomethyl)-26-hydroxy-7-methyl-6,9-dioxo-5,8-diaza-1,2(1,3)-dibenzenacyclodecaphane-4-carboxamide]",0.094 µM
2,"Cc1nc(-c2ccc(C(C)(C)C)cc2)nc(C)c1C(=O)N[C@@H](CCN)C(=O)N(C)[C@@H]1C(=O)N[C@@H](C)C(=O)N[C@H](C(=O)O)Cc2cc(OCCN)c(O)c(c2)-c2cc1ccc2OCCN (racemic) [Compound 563, rac-(8S,11S,14S)-4,18-bis(2-aminoethoxy)-3-hydroxy-11-methyl-14-[methyl-[rac-(2S)-4-amino-2-[[2-(4-tert-butylphenyl)-4,6-dimethyl-pyrimidine-5-carbonyl]amino]butanoyl]amino]-10,13-dioxo-9,12-diazatricyclo [13.3.1.12,6]icosa-1(18),2,4,6(20),15(19), 16-hexaene-8-carboxylic acid]",0.25 µM
3,"Cc1nc(-c2ccc(OC(C)C)cc2)nc(C)c1C(=O)N[C@@H](CCN)C(=O)N(C)[C@@H]1C(=O)N[C@@H](C)C(=O)N[C@H](C(=O)NCC#N)Cc2ccc(OC[C@H](O)CN)c(c2)-c2cc1ccc2OC[C@H](O)CN (racemic) [Compound 569, rac-(8S,11S,14S)-N-(cyanomethyl)-11-methyl-14-[methyl-[rac-(2S)-4-amino-2-[[2-(4-isopropoxyphenyl)-4,6-dimethyl-pyrimidine-5-carbonyl]amino]butanoyl]amino]-10,13-dioxo-3,18-bis[rac-(2R)-3-amino-2-hydroxy-propoxy]-9,12-diazatricyclo[13.3.1.12,6]icosa-1(18),2(20),3,5,15(19),16-hexaene-8-carboxamide]",0.5 µM

# — US20260274892A1, “MACROCYCLIC BROAD SPECTRUM ANTIBIOTICS” (RQx Pharmaceuticals, Inc., priority 2017, published 2026)
